# Results as given in PMC11111404, “Discovery of potent small-molecule inhibitors of lipoprotein(a) formation” (Nature, 2024).
# Like-named read-outs stand apart in the source and are kept apart here.
# Experiments:
# [1] = tested on: Plg mRNA; experiment: Rat hepatic Plg mRNA after oral dosing; format: in vivo; conditions: rats, daily oral dosing
# Description: Male Sprague Dawley rats (Charles River, average body weight 310 g, aged eight to nine weeks old) were housed in cages with a standard light cycle (12-h light, 12-h dark), at room temperature (22 ± 4 °C), with a relative humidity of 30–70%. Rats were identified by numbers on the cage cards. After arrival, rats were fed on a normal diet (Harlan Teklad diet 2014) and randomized to treatment groups (n = 5 per group) by baseline plasma plasminogen concentration and activity using a BRAT. LSN3441732 and LY3473329 were administered QD orally at three dose levels (3.7, 12.3 and 37 mg kg^−1; 3.2, 10.5 and 31.6 mg kg^−1 per dose, respectively) or vehicle (10 ml kg^−1, 1% HEC, 0.25% Tween-80, Antifoam) for four days. Terminal blood was drawn under general anaesthesia 24 h after the day-4 oral dose. Plasma samples were collected via the abdominal aorta into a premeasured anticoagulant BD Vacutainer used for blood collection (2.7 ml, buffered sodium citrate). […]
# RNA was isolated from the liver using the PureLink RNA Mini Kit (Invitrogen) and quantified using the NanoDrop spectrophotometer (Thermo Fisher Scientific). […] Quantitative PCR was conducted using TaqMan reagents and primers (Plg Rn00585167_m1, Gapdh Rn99999916_s1). Relative quantitation was calculated using the comparative Ct method. Statistical significance was evaluated using JMP v.16.1.0 software (SAS).
# [2] = biological target: T1, K-2 to K-3 domains of rat plasminogen (Rattus norvegicus, UniProt Q01177); experiment: ITC binding to rat plasminogen K-2 to K-3
# T1 construct: made in house
# T1 sequence (Q01177 184-352 limits assumed): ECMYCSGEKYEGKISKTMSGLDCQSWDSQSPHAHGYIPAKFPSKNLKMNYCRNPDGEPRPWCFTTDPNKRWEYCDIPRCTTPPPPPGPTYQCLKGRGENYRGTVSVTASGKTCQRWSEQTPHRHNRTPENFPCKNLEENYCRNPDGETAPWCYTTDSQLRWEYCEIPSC
# Description: (§1) The nucleotide sequence encoding the human LPA gene (NP_005568.2) was inserted into a mammalian expression vector containing a cytomegalovirus promoter. Protein expression was performed by transient transfection of human embryonic kidney 293 (HEK293) cells cultured in serum-free medium. The culture medium was collected five days after transfection and human apo(a) protein was purified using L-lysine affinity chromatography. Nucleotide sequences encoding various KIV domains of human apo(a) and human and rat plasminogen were inserted into a pET21a Escherichia coli expression vector. […] All protein concentrations were determined by A280. […] The microsyringe was loaded with a solution of the respective compounds, with the concentration measured by quantitative nuclear magnetic resonance, and was inserted into the calorimetric cell prefilled with the respective recombinant proteins of known concentration in ITC buffer. […] Thermodynamic parameters were calculated using the basic equation of thermodynamics (ΔG = ΔH - TΔS = -RTlnKd), where ΔG, ΔH and ΔS are the changes in free energy, enthalpy and entropy of binding, respectively; Kd is the equilibrium dissociation constant; T is the absolute temperature ([…]); and R is the gas constant (1.987 cal mol^-1 K^-^1). […]
# [3] = biological target: T2, K-2 to K-3 domains of human plasminogen (Homo sapiens, UniProt P00747); experiment: ITC binding to human plasminogen K-2 to K-3
# T2 construct: that for the K-2 to K-3 domains of human plasminogen; made in house
# T2 sequence (P00747 184-352 limits assumed): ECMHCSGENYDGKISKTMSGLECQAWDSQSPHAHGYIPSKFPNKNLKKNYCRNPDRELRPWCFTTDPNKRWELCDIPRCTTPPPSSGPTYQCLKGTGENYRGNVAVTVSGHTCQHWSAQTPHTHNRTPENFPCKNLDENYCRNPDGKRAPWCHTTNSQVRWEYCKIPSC
# Description: as §1
# [4] = tested on: plasmin activity; parameters: method as in PMID 37638695; conditions: human phase 1 study; cited from earlier work
# [5] = Pharmacokinetics in monkey plasma after oral dosing; format: in vivo; conditions: for AUC(0-t): day 15, read-out: AUC(0-96 hr)
# Description: Plasma samples were collected from all monkeys before dosing and at four-hour time points only on days 1, 3, 5, 9 and 14. A full PK profile was obtained in the first three monkeys of each dose group on day 15, collecting samples before dosing and 1, 2, 4, 8, 12, 24, 48 and 96 h after dosing. Concentrations of compounds were evaluated in plasma samples using a non-GLP LC–MS/MS assay. The non-compartmental plasma PK parameters were calculated using Watson (v.7.5).
levels of hepatic Plg mRNA [1],Kd [2],fold higher affinity for rat than human plasminogen K-2 to K-3 [2],Kd [3],"Tmax ([5]; Chinese cynomolgus, oral 1 mg/kg, day 15)","Cmax ([5]; Chinese cynomolgus, oral 10 mg/kg, day 15)","AUC(0-t) ([5]; Chinese cynomolgus, oral 10 mg/kg)","Tmax ([5]; Chinese cynomolgus, oral 100 mg/kg, day 15)","AUC(0-t) ([5]; cynomolgus, oral 100 mg/kg)",Compound,plasmin activity at oral doses lowering Lp(a) [4]
unchanged,< 10 nM,more than 100 fold,1600 nM,,,,,,Cl.Cl.O=C(Nc1cccc(C[C@H](C(=O)O)[C@H]2CCNC2)c1)Nc1cccc(C[C@H](C(=O)O)[C@H]2CCNC2)c1 [LSN3441732],
,,,,7 ± 5.7 h,3.47 µM,207 µM·h,1 ± 1 h,294 µM·h,O=C(O)[C@@H](Cc1cccc(CN(Cc2cccc(C[C@H](C(=O)O)[C@H]3CCNC3)c2)Cc2cccc(C[C@H](C(=O)O)[C@H]3CCNC3)c2)c1)[C@H]1CCNC1 [LY3473329],without affecting plasmin activity
